The subject of test [1] is CCF-STTG1 astrocytoma cells (ApoE lipoprotein secretion). The test is described as follows: native-PAGE gel of ApoE lipidation in conditioned media. It is filed as cell-based. The settings on record: CCF-STTG1 cell media following culture with compound. The protocol: (§1) To test whether the TR-FRET assay detects lipidated proteins secreted from cells, the TR-FRET assay was tested on concentrated media from cultures of CCF-STTG1 astrocytoma cells grown in the absence and presence of T0901317, a LXR transcription factor agonist that induces ApoE lipoprotein secretion. Samples of concentrated media were mixed with TR-FRET buffer, europium-conjugated anti-ApoE3 antibody and DiD, incubated at 37° C. for 20 hours, and then fluorescence was measured using an Envision plate reader. As a control, samples were analyzed by native-PAGE gels, a conventional method of detecting lipidated proteins.

Test [2] has the same test system. As to the kind of experiment: TR-FRET ApoE lipidation assay on media from CCF-STTG1 cells. The class given is cell-based. As to conditions: Homo sapiens, media from CCF-STTG cells, 48 hours incubation, europium-conjugated anti-ApoE antibody and DiD, n=3, read-out: EC50 (TR-FRET signal, ApoE lipidation). The protocol: TR-FRET analysis was performed on an Envision plate reader (Perkin Elmer). The donor fluorophore (europium cryptate-conjugated antibody) was excited at 320 nm. A 40 μs delay occurred before measuring emission signals at 620 nm (donor fluorescence) and 665 nm wavelengths (DiD acceptor FRET signal) during a 400 μs window. Sample normalized FRET signal was determined by finding the ratio of the 665 nm emission to 620 nm emission.
as §1
A general note: TR-FRET usually uses a lanthanide donor and a delayed reading to cut background.

As a reminder, the EC50 is the concentration that produces a half-maximal response. As for `O=S(=O)(c1ccccc1)N(CC(F)(F)F)c1ccc(C(O)(C(F)(F)F)C(F)(F)F)cc1` [T0901317], the “lipidated ApoE in cell media by native-PAGE” value in test [1] was “dose-dependent accumulation of lipidated ApoE”. Besides, in test [2], the EC50 is 0.0502 µM.
